For seven molecules, GI50 and TGI results are on record in PubChem BioAssay (NCI).

Each structure is given as a SMILES string.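 In this assay, cells in 96-well plates receive the compound at five concentrations for 48 hours. Endpoints are linearly interpolated between the surrounding concentrations. GI50: concentration for 50% inhibition of growth. The concentration for full growth arrest is given as TGI.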 Some results are limits rather than exact numbers.

Among the test systems are SK-MEL-28 melanoma; SNB-75 CNS; MCF7 breast; SF-295 CNS; T-47D breast; HCC-2998 colon; LOX IMVI melanoma; OVCAR-3 ovarian; MDA-MB-435; CCRF-CEM leukemia.
What all share (assay): DTP human tumour cell line panel, 48 h

With `NC(=S)N=Nc1c(O)c2ccccc2c2ccccc12`, the GI50 with SK-MEL-28 melanoma was 2.98 µM; in the assay on SNB-75 CNS it was 1.34 µM; in the assay on MCF7 breast it was 1.88 µM; in the assay with SF-295 CNS, 3.01 µM; in the assay on T-47D breast, 14 µM; with HCC-2998 colon it was 36.3 µM. Also, the GI50 was 2.81 µM with LOX IMVI melanoma, 3.02 µM in the assay with OVCAR-3 ovarian, 1.85 µM in the assay on MDA-MB-435 and 28.6 µM in the assay with CCRF-CEM leukemia. In addition, the TGI with SK-MEL-28 melanoma is 10 µM; in the assay on SNB-75 CNS it was 3.24 µM; in the assay on MCF7 breast, 4.54 µM; in the assay with SF-295 CNS it was 10.2 µM; in the assay on T-47D breast, greater than 100 µM; with HCC-2998 colon, greater than 100 µM. Moreover, the TGI in the assay with LOX IMVI melanoma was 11.1 µM; in the assay on OVCAR-3 ovarian, 10.2 µM; in the assay with MDA-MB-435 it was 3.45 µM; in the assay on CCRF-CEM leukemia, greater than 71.6 µM.
With `CC(=O)c1cc(C(=O)c2ccc3c(c2)Sc2ccccc2N3)c2c(C)cccn12`, the GI50 in the assay on SK-MEL-28 melanoma is 2.51 µM; with SNB-75 CNS, 0.178 µM; in the assay with MCF7 breast, 0.117 µM; with SF-295 CNS it was 0.188 µM; in the assay with T-47D breast, 0.314 µM; in the assay with HCC-2998 colon, 1.65 µM. Also, the GI50 is 0.595 µM with LOX IMVI melanoma, 0.261 µM in the assay on OVCAR-3 ovarian, 0.0464 µM in the assay on MDA-MB-435 and 0.332 µM in the assay on CCRF-CEM leukemia. In addition, the TGI was greater than 100 µM in the assay with SK-MEL-28 melanoma; 1.04 µM in the assay on SNB-75 CNS; greater than 100 µM in the assay with MCF7 breast; 15.8 µM in the assay on SF-295 CNS; greater than 68.5 µM with T-47D breast; greater than 100 µM in the assay on HCC-2998 colon. The TGI with LOX IMVI melanoma is 4.61 µM; in the assay on OVCAR-3 ovarian, 0.838 µM; in the assay on MDA-MB-435, 0.275 µM; in the assay on CCRF-CEM leukemia it was greater than 100 µM.
In the case of `C#COc1cccc(Nc2ncnc3cc(NC(=O)[C@H](C)Cl)ccc23)c1`, the GI50 with SK-MEL-28 melanoma is 4.71 µM; in the assay on SNB-75 CNS, 2.6 µM; in the assay on MCF7 breast, 6.08 µM; in the assay with SF-295 CNS, 2.28 µM; in the assay on T-47D breast, 19.3 µM; in the assay on HCC-2998 colon, 5.71 µM. For the same molecule, the GI50 in the assay with LOX IMVI melanoma was 2.54 µM; in the assay with OVCAR-3 ovarian it was 2.17 µM; with MDA-MB-435 it was 1.4 µM; in the assay with CCRF-CEM leukemia, 2.41 µM. Moreover, the total growth inhibition concentration (TGI) is greater than 62.5 µM in the assay on SK-MEL-28 melanoma; greater than 62.5 µM in the assay on SNB-75 CNS; greater than 62.5 µM in the assay on MCF7 breast; 61.1 µM in the assay on SF-295 CNS; greater than 62.5 µM in the assay on T-47D breast; greater than 62.5 µM with HCC-2998 colon. The TGI is greater than 62.5 µM in the assay on LOX IMVI melanoma, greater than 62.5 µM in the assay on OVCAR-3 ovarian, 4.3 µM in the assay on MDA-MB-435 and greater than 62.5 µM in the assay on CCRF-CEM leukemia.
Consider `Cc1ccc(NCCN(C)C)c2c(=O)c3ccccc3sc12`, for which the GI50 in the assay with SK-MEL-28 melanoma is 1.71 µM; in the assay on SNB-75 CNS, 1.49 µM; in the assay with MCF7 breast, 1.47 µM; in the assay on SF-295 CNS, 1.88 µM; in the assay with T-47D breast, 1.82 µM; with HCC-2998 colon it was 1.57 µM. For the same molecule, the GI50 with LOX IMVI melanoma is 1.61 µM; in the assay on OVCAR-3 ovarian, 1.86 µM; in the assay on MDA-MB-435, 1.71 µM; in the assay on CCRF-CEM leukemia, 2.12 µM. Also, the TGI was found to be 3.11 µM in the assay on SK-MEL-28 melanoma; 3.08 µM with SNB-75 CNS; 2.95 µM in the assay on MCF7 breast; 4.46 µM with SF-295 CNS; 4.96 µM in the assay on T-47D breast; 2.92 µM in the assay with HCC-2998 colon. The TGI in the assay on LOX IMVI melanoma came out at 3.45 µM; in the assay on OVCAR-3 ovarian it was 3.73 µM; with MDA-MB-435, 3.47 µM; with CCRF-CEM leukemia it was 6.18 µM.
In the case of `COc1ccc(/C=C\c2cc(OC)c(OC)c(OC)c2)cc1OCC(=O)Nc1ccc2nc(C)sc2c1`, the GI50 in the assay with SK-MEL-28 melanoma is 3.22 µM; with SNB-75 CNS, 1.55 µM; in the assay on MCF7 breast, 0.748 µM; with SF-295 CNS, 2.45 µM; with T-47D breast, 9.41 µM; with HCC-2998 colon it was 6.9 µM. Besides, the GI50 was 2.64 µM in the assay on LOX IMVI melanoma, 6.32 µM with OVCAR-3 ovarian, 2.13 µM in the assay with MDA-MB-435 and 3.41 µM in the assay with CCRF-CEM leukemia. For the same molecule, the TGI in the assay on SK-MEL-28 melanoma was 13.1 µM; with SNB-75 CNS it was 7.37 µM; in the assay on MCF7 breast it was 12.9 µM; in the assay with SF-295 CNS it was 6.85 µM; in the assay on T-47D breast, 33.8 µM; in the assay with HCC-2998 colon it was greater than 100 µM. The TGI in the assay with LOX IMVI melanoma is 9 µM; in the assay on OVCAR-3 ovarian, 69.2 µM; with MDA-MB-435 it was 6.18 µM; in the assay with CCRF-CEM leukemia, greater than 100 µM.
In the case of `CCS(=O)(=O)c1ccc(OC)c(Nc2ncc(-c3ccccc3Cl)o2)c1`, the GI50 was greater than 25 µM in the assay with SK-MEL-28 melanoma; 9.11 µM with SNB-75 CNS; 8.27 µM with MCF7 breast; 9.43 µM in the assay with SF-295 CNS; 8.57 µM in the assay on T-47D breast; 18.1 µM in the assay on HCC-2998 colon. In addition, the GI50 was 9.15 µM with LOX IMVI melanoma, 9.38 µM in the assay on OVCAR-3 ovarian, 6.73 µM in the assay on MDA-MB-435 and 9.78 µM with CCRF-CEM leukemia. For the same molecule, the TGI in the assay on SK-MEL-28 melanoma is greater than 25 µM; with SNB-75 CNS it was 24.6 µM; with MCF7 breast, greater than 25 µM; in the assay with SF-295 CNS, greater than 25 µM; in the assay with T-47D breast it was greater than 25 µM; in the assay on HCC-2998 colon, greater than 25 µM. In addition, the TGI is greater than 25 µM with LOX IMVI melanoma, greater than 25 µM with OVCAR-3 ovarian, greater than 22.1 µM with MDA-MB-435 and greater than 25 µM in the assay on CCRF-CEM leukemia.
Regarding `COc1cc(/C=C/c2cc(/C=C/c3ccc(O)c(OC)c3)n(C(=O)Nc3ccc(Cl)cc3)n2)ccc1O`, the GI50 with SK-MEL-28 melanoma is 1.07 µM; in the assay with SNB-75 CNS it was 0.444 µM; in the assay with MCF7 breast, 0.486 µM; in the assay on SF-295 CNS, 1.5 µM; with T-47D breast it was 1.25 µM; with HCC-2998 colon, 1.68 µM. Besides, the GI50 is 0.448 µM with LOX IMVI melanoma, 0.329 µM in the assay on OVCAR-3 ovarian, 0.149 µM with MDA-MB-435 and 0.298 µM with CCRF-CEM leukemia. For the same molecule, the TGI in the assay on SK-MEL-28 melanoma was found to be 4.07 µM; with SNB-75 CNS, 2.25 µM; in the assay with MCF7 breast, 3.39 µM; in the assay with SF-295 CNS, 7.86 µM; in the assay on T-47D breast, 4.17 µM; in the assay on HCC-2998 colon, 6.01 µM. In addition, the TGI was 2.26 µM in the assay on LOX IMVI melanoma, 1.07 µM with OVCAR-3 ovarian, 0.392 µM with MDA-MB-435 and greater than 21.4 µM in the assay on CCRF-CEM leukemia.

Usually GI50 stands for the concentration that inhibits growth by half. For orientation: TGI means the concentration at which net growth stops.
